Laboratory results taken from patent US9115082B2, “Dipeptidyl-peptidase-IV inhibitors for treatment of type 2 diabetes complex with hypertension” (priority 2012, dated 2015).

Test system: blood glucose
Experiment: oral glucose tolerance test in diet-induced obese mice
Assay type: in vivo, Male C57BL/6 mice
Conditions: fasted DIO mice, 1 hour before glucose (2 g/kg) challenge
Method: Specifically, an oral glucose tolerance test in diet-induced obese mice were conducted. Male C57BL/6 mice (6-8 weeks of age) were used. Mice were fed a lean (control group) or high-fat (DIO group) diet (5 and 35% fat by weight, respectively) for 6-9 weeks and then administered an oral glucose tolerance test. […] Blood glucose was determined at various time points from tail bleeds using a glucometer. The blood glucose response curve (AUC's, t==2 hours) are 18.7±1.6, 20.1±0.7, 21.3±11.5 for above three groups, respectively.

## Cl.N#CC1CCCN1C(=O)CNCC(O)COc1ccccc1 (stereo not drawn) [compound 7, 1-(2-(2-hydroxy-3-phenoxypropylamino)acetyl)pyrrolidine-2-carbonitrile hydrochloride]
3 mg/kg oral
  blood glucose response curve (AUC's, t==2 hours): 21.3±11.5
10 mg/kg oral
  blood glucose response curve (AUC's, t==2 hours): 20.1±0.7
30 mg/kg oral
  blood glucose response curve (AUC's, t==2 hours): 18.7±1.6
